Read-outs that look alike come from different tables or passages of the source.
Columns and labels:
[1] = test system: CCRF-CEM human lymphoblastic leukemia cells; test: In vitro cytotoxicity, XTT assay, 72-hr incubation; type: cell-based
Text: (§1) Human colon carcinoma HCT-116 cells, human prostate adenocarcinoma PC-3 and adenocarcinoma SK-OV-3 cells were obtained from American Type Culture Collection (ATCC, Rockville, Md.). Human mammary carcinoma (MX-1) tumor cells were obtained from MSKCC cell bank. The CCRF-CEM human lymphoblastic leukemia cells and their vinblastine resistant subline (CCRF-CEM/VBL, 680-fold resistance in vitro) were obtained from Dr. William Beck of the University of Illinois, Chicago, and CCRF-CEM/Taxol (330-fold resistance in vitro). Resistant cells CCRF-CEM/taxol were produced by exposing the parent cells to increasing sublethal concentration (IC50-IC90) of paclitaxel for six months.
(§2) In preparation for in vitro cytotoxicity assays, cells were cultured at an initial density 2-5×10^4 cells per milliliter. They were maintained in a 5% CO2-humidified atmosphere at 37° C. in RPMI medium 1640 (GIBCO/BRL) containing penicillin (100 units/mL), streptomycin (100 μg/mL, GIBCO/BRL), and 5% heat-inactivated FBS. For cells grown in suspension (such as CCRF-CEM and its sublines), cytotoxicity was measured, by using XTT microculture method in 96-well microtiter plates (Scudiero D A et al., Cancer Res. 1988, 48, 4827-4833). For solid tumor cells growing in a monolayer (such as MX-1 and HCT-116), cytotoxicity of the drug was determined, in duplicate, in 96-well microtiter plates by using the sulforhodamine B method (Skehan P et al., J. Natl. Cancer Inst 1990, 82, 1107-1112). For both methods, the absorbance of each well was measured with a microplate reader (Power Wave XS, Bio-Tek, Winooski, Vt.) after 72-hr incubation as described previously (Chou T-C et al., Proc. Natl. Acad. Sci. USA 2001, 98, 8113-8118). Dose-effect relationship data from 6 to 7 concentrations of each drug, in duplicate, were analyzed by using a computer program (Chou T-C et al., ComboSyn, Inc., Paramus, N J. 2005) based on the median-effect principle and plot (Chou T-C et al., Adv. Enzyme Regul. 1984, 22, 27-55; Chou T-C, Pharmacol. Rev. 2006, 58, 621-681).
(§3) The IC50 is defined by the concentration required to inhibit tumor cell growth by 50%. […] The growth inhibition of the compounds disclosed herein against human lymphoblastic leukemic cells (CCRF-CEM) and its drug-resistant sublines (resistant to vinblastine and taxol, CCRF-CEM/VBL and CCRF-CEM/taxol, respectively) is also shown in Table 5. […] Thus, the compounds disclosed herein are effective against multiple drug resistant tumors.

[2] = test system: CCRF-CEM/Taxol; test: In vitro cytotoxicity, XTT assay, taxol resistant subline; type: cell-based, human; settings: for IC50: XTT assay, 72-hr incubation; for fold of cross-resistant, CCRF-CEM/Taxol vs IC50 of the parent cell line: numbers in brackets
Text: as §1, §2, §3

[3] = test system: Human mammary carcinoma (MX-1) tumor cells; test: In vitro cytotoxicity, sulforhodamine B (SRB) assay; type: cell-based; settings: 72-hr incubation
Text: as §1, §2, §3

[4] = test system: Human colon carcinoma HCT-116 cells; test: as above; type: cell-based
Text: as §1, §2, §3

[5] = test system: CCRF-CEM/VBL; test: In vitro cytotoxicity, XTT assay, vinblastine resistant subline; type: cell-based, human; settings: for IC50: XTT assay, 72-hr incubation; for fold of cross-resistant, CCRF-CEM/VBL vs IC50 of the parent cell line: numbers in brackets
Text: as §1, §2, §3

[6] = Homo sapiens, HCT-116, 72-hr incubation

With `OCc1c(CO)c(-c2ccc(F)c(F)c2)n2c1Cc1ccccc1C2` [DA-1112, [3-(3,4-Difluorophenyl)-2-hydroxymethyl-5,10-dihydropyrrolo[1,2-b]isoquinolin-1-yl]methanol] the IC50 ([1]; Homo sapiens, CCRF-CEM) was 1.14 µM, the IC50 ([2]; Homo sapiens, CCRF-CEM) was 0.745 µM and the “fold of cross-resistant, CCRF-CEM/Taxol vs IC50 of the parent cell line” value (“fold of cross-resistant, CCRF-CEM/Taxol” below) [2] was “[0.66x]”. The IC50 ([3]; Homo sapiens) was 6.67 µM, the IC50 [4, 6] was 2.92 µM and the IC50 ([5]; Homo sapiens, CCRF-CEM) was 1.01 µM. The “fold of cross-resistant, CCRF-CEM/VBL vs IC50 of the parent cell line” value (shortened to “fold of cross-resistant, CCRF-CEM/VBL”) [5] was “[0.89x]”.

`OCc1c(CO)c(-c2ccc(F)cc2)n2c1Cc1ccccc1-2` [DA-1024, (3-(4-Flourophenyl)-2-hydroxymethyl-8H-3a-aza-cyclopenta[a]inden-1-yl)methanol] was tested, and the IC50 [1] was 4.25 µM, the IC50 [2] was 11 µM and the “fold of cross-resistant, CCRF-CEM/Taxol” value [2] was “[2.6x]”. For the same compound, the IC50 [3] was 22.3 µM, the IC50 ([4]; 72-hr incubation) was 8.07 µM and the IC50 [5] was 4.07 µM. The “fold of cross-resistant, CCRF-CEM/VBL” value [5] was “[0.96x]”.

In the case of `CNC(=O)OCc1c(COC(=O)NC)c(-c2ccc(OC)c(OC)c2)n2c1Cc1ccccc1-2` [DA-1125, Methylcarbamic acid 3-(3,4-dimethoxyphenyl)-2-methylcarbamoyloxymethyl-8H-3a-aza-cyclopenta[a]inden-1-ylmethyl ester], the IC50 ([1]; Homo sapiens, CCRF-CEM) is reported as 0.35 µM, the IC50 ([2]; Homo sapiens, CCRF-CEM) is reported as 0.497 µM and the “fold of cross-resistant, CCRF-CEM/Taxol” value [2] is reported as “[1.42x]”. It also gave an IC50 ([3]; Homo sapiens) of 1.84 µM, an IC50 [4, 6] of 0.68 µM and an IC50 ([5]; Homo sapiens, CCRF-CEM) of 0.374 µM. The “fold of cross-resistant, CCRF-CEM/VBL” value [5] was “[1.07x]”.

For `OCc1c(CO)c(-c2ccccc2)n2c1Cc1ccccc1-2` [DA-1011, (2-hydroxymethyl-3-phenyl-8H-3a-azacyclopenta[a]inden-1-yl)-methanol], the IC50 ([1]; Homo sapiens, CCRF-CEM) was 0.252 µM, the IC50 ([2]; Homo sapiens, CCRF-CEM) was 0.224 µM and the “fold of cross-resistant, CCRF-CEM/Taxol” value [2] was “[0.89x]”. The IC50 ([3]; Homo sapiens) was 1.35 µM, the IC50 [4, 6] was 1.85 µM and the IC50 ([5]; Homo sapiens, CCRF-CEM) was 0.213 µM. For the same compound, the “fold of cross-resistant, CCRF-CEM/VBL” value [5] was “[0.85x]”.

In the case of `OCc1c(CO)c(-c2ccc(Cl)cc2)n2c1Cc1ccccc1-2` [DA-1003, (3-(4-Chlorophenyl)-2-hydroxymethyl-8H-3a-aza-cyclopenta[a]inden-1-yl)methanol], the IC50 ([1]; Homo sapiens, CCRF-CEM) is reported as 4.27 µM, the IC50 ([2]; Homo sapiens, CCRF-CEM) is reported as 4.22 µM and the “fold of cross-resistant, CCRF-CEM/Taxol” value [2] is reported as “[1.00x]”. It also gave an IC50 ([3]; Homo sapiens) of 6.13 µM, an IC50 [4, 6] of 5.59 µM and an IC50 ([5]; Homo sapiens, CCRF-CEM) of 2.53 µM. The “fold of cross-resistant, CCRF-CEM/VBL” value [5] was “[0.59x]”.

`CC(=O)O[C@H]1C(=O)[C@@]2(C)[C@H]([C@H](OC(=O)c3ccccc3)[C@]3(O)C[C@H](OC(=O)[C@H](O)[C@@H](NC(=O)c4ccccc4)c4ccccc4)C(C)=C1C3(C)C)[C@]1(OC(C)=O)CO[C@@H]1C[C@@H]2O` [Taxol, reference compound] gave an IC50 ([1]; Homo sapiens, CCRF-CEM) of 0.0013 µM, an IC50 ([2]; Homo sapiens, CCRF-CEM) of 1.27 µM and an IC50 ([3]; Homo sapiens) of 0.035 µM. The IC50 [4, 6] was 0.0013 µM, the IC50 ([5]; Homo sapiens, CCRF-CEM) was 0.429 µM and the “fold of cross-resistant, CCRF-CEM/VBL” value [5] was “[330x]”.

For `COc1ccc(-c2c(CO)c(CO)c3n2-c2ccccc2C3)cc1OC` [DA-1097, (3-(3,4-Dimethoxyphenyl)-2-hydroxymethyl-8H-3a-aza-cyclopenta[a]inden-1-yl)methanol], the IC50 ([1]; Homo sapiens, CCRF-CEM) was 1.04 µM, the IC50 ([2]; Homo sapiens, CCRF-CEM) was 1.95 µM and the “fold of cross-resistant, CCRF-CEM/Taxol” value [2] was “[1.87x]”. It also gave an IC50 ([3]; Homo sapiens) of 11.1 µM, an IC50 [4, 6] of 4.09 µM and an IC50 ([5]; Homo sapiens, CCRF-CEM) of 1.14 µM. For the same compound, the “fold of cross-resistant, CCRF-CEM/VBL” value [5] was “[1.1x]”.

With `OCc1c(CO)c(-c2ccc(Cl)cc2)n2c1Cc1ccccc1C2` [DA-1116, [3-(4-Chlorophenyl)-2-hydroxymethyl-5,10-dihydropyrrolo[1,2-b]isoquinolin-1-yl]methanol] the IC50 ([1]; Homo sapiens, CCRF-CEM) was 0.6 µM, the IC50 ([2]; Homo sapiens, CCRF-CEM) was 0.601 µM and the “fold of cross-resistant, CCRF-CEM/Taxol” value [2] was “[1.00x]”. For the same compound, the IC50 ([3]; Homo sapiens) was 3.27 µM, the IC50 [4, 6] was 2.64 µM and the IC50 ([5]; Homo sapiens, CCRF-CEM) was 0.543 µM. For the same compound, the “fold of cross-resistant, CCRF-CEM/VBL” value [5] was “[0.91x]”.

From US8410130B2, “Synthesis of 8H-3A-aza-cyclopenta [A ]indenes and 5,10-dihydropyrrolo[1,2-B]isoquinolines derivatives and their use as antitumor therapeutic agents” (Academia Sinica, priority 2007, dated 2013)
